Results from article PMC4515242, “ESR and X-ray Structure Investigations on the Binding and Mechanism of Inhibition of the Native State of Myeloperoxidase with Low Molecular Weight Fragments” (Applied Magnetic Resonance, 2015).
pIC50: −log10 of the molar value.

Experiments:
hMPO [1] = target: T1, hMPO (Homo sapiens, UniProt P05164); assay: Alpha screen assay: inhibition of MPO-initiated nitration of the Apo-A1 peptide ([…]); type: biochemical; conditions: MPO 11.8 nM, pH 7.4, 45 min RT
T1 construct: purchased Biodesign A31804H
T1 sequence (P05164 49-745): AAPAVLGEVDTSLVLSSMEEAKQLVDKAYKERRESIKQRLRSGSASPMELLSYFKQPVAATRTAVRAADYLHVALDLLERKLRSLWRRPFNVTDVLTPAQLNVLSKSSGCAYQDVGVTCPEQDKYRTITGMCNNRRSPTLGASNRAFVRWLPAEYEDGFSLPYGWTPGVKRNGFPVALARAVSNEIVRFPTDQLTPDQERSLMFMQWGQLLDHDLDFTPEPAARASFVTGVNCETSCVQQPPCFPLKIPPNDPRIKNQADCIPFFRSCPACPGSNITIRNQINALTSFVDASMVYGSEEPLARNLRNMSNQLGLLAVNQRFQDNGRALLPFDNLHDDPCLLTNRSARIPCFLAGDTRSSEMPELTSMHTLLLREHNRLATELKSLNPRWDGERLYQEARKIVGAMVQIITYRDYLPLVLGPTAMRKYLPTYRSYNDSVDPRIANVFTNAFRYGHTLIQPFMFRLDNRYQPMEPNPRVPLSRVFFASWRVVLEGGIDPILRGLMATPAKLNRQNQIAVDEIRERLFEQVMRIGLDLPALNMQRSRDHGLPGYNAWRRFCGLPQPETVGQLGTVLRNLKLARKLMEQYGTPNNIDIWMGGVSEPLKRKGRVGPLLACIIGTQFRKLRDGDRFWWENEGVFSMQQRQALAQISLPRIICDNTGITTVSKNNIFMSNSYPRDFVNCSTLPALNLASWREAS
Procedure: In a typical experiment, MPO (11.8 nM final concentration) in 20 mM phosphate buffer pH 7.4, 10 % glycerol and 0.005 % gelatin (PB) is added to each well of a multi-well plate containing 20 μl PB ± compound (final concentration of DMSO = 0.9 %). The reaction is started by the addition of 20 μl PB containing 1.5 μM ApoAI peptide substrate, 300 μM diethylenetriaminepentaacetic acid (DTPA), 300 μM sodium nitrite, and 30 μM H2O2. The total reaction volume is 60 μl. The plates are incubated with agitation for 45 min at RT. The reaction is terminated with the addition of 20 μl of a stop solution containing 11.2 nM rabbit anti-nitrotyrosine antibody (final conc. of 2.8 nM), 100 μg/ml streptavidin donor beads, and 100 μg/ml protein A acceptor beads (final concentration of […]), FBS (1.6 % final concentration) in Superblock buffer. The plates are sealed, incubated in the dark for 1 h, and read on a Packard Fusion alpha plate reader.
Through a chloride independent pathway, MPO catalyzes the one electron oxidation of nitrite ions to nitrogen dioxide radicals which then […] protein amino acids like Tyrosine. We used the Apo-A1 peptide substrate ([…]) to follow the nitration of the Tyrosine (indicated by Y in the scheme below): MPO+H2O2→Compound INO2-+Compound I→NO2·+Compound II [drawing 1] Our initial experiments focused on identifying inhibitors that bind to the heme to inhibit the above catalytic action. A representative set of inhibitors is collected in Fig. 1a (strong binders, vide infra) and b (non binders, vide infra).

[2] = ABTS radical cation decolorization assay to measure the antioxidant capacity; conditions: % inhibition at 20 uM single dose, read at 734 nm after 30 min
Procedure: The assay was modeled after the published procedure. Briefly, ABTS radical cation was prepared by adding 100 μl of 70 mM K2S2O8 to 10 ml ABTS, followed by vortexing and incubating at 37 °C water bath for 2 h. […] Trolox standards are dissolved in water. The reaction is started by adding the ABTS radical cation solution to the MPO inhibitors or Trolox (final concentration 20 μM). The plate is gently shaken for 1 min and then set on a bench top at room temperature for 30 min.

hMPO [3] = target: T1, hMPO; assay: Peroxidase inhibition assay: ESR of hMPO exposed to H2O2 with and without inhibitor; type: biochemical; conditions: inhibitor added before H2O2 (555 μM); inhibitor:MPO 40:1, in DMSO
Procedure: Hydrogen peroxide (30 %, v/v; 9.71 M) is used with different dilutions in ice-cold deionized water. MPO at 50 μl of 20.8 μM (4.6 μM final concentration) is incubated with different concentrations of H2O2 in the absence and in the presence of inhibitors (inhibitor to MPO concentration is 40:1) for 1 min and rapidly frozen at 77 K. The inhibitors are added to MPO, incubated for 5 min prior to H2O2 addition in these reactions.

hMPO [4] = target: T1, hMPO; assay: Reversible binding assay (filtration and ESR after washing); conditions: bound complex washed with buffer, then ESR at 4 K
Procedure: We performed the following two assays for independently confirming the reversibility of binding. In the filtration method, hMPO stock (1.5 mg/ml) is diluted to 5 μg/ml with 20 mM phosphate buffer pH 7.4, 10 % glycerol (no gelatin). 120 μl of this solution is mixed with an equal volume of the compounds at a concentration of 30 μM (final concentration […]), followed by mixing in the plate and incubation for 15 min. at room temperature. 120 μl aliquot of this solution is transferred into separate YM30 Micron filter units and centrifuged 6 min at 9000 rpm, followed by the addition of 300 μl of the buffer and further centrifugation for 12 min. at 9000 rpm. Wash and centrifuge cycles are repeated 2 more times with 300 μl buffer, each followed by 12 min. centrifugation steps. The protein left on the membrane is mixed with the PB buffer to a final volume of 120 μl and subjected to Alpha screen method as described before to probe the nitration of Apo A1 peptide substrate which is taken as a confirmation of the restoration of the catalytic activity of the protein.
In the ESR protocol, the methodology of Hori et al. was applied with some modifications.The protocol followed is similar to the binding assay except that a higher concentration of hMPO (9.2 μM final) is used. This is necessary as multiple washings followed by dilutions lead to considerable loss of the enzyme due to its retention on the membrane. After 5 min of incubation in the eppendorf at room temperature, the contents were transferred to an Amicon Ultra-4 tube (5 ml capacity) and filled with 4 ml of 0.1 M sodium acetate buffer (containing 50 mM NaCl) pH 6.0. Using spin conditions of 4000×g in a swinging bucket rotor at 20 °C, the samples are washed repeatedly (2×) followed with a final wash containing 1 ml of the sodium acetate buffer (chloride free) + 25 % n-propanol and then concentrated. The concentrated solution ca. 300 μl is transferred to ESR quartz tubes and measured at 4 K. A higher concentration of MPO in these reversible binding assays enabled a good ESR signal over noise from the washed (3X) sample.

| pIC50 (hMPO [1]) | reversibility of the binding (hMPO [4]) | Structure (SMILES) | % Anti oxidant potential [2] | prevention of peroxide-induced ESR changes (decay of g X and g Y, growth of g ~ 6) (hMPO [3]) |
| --- | --- | --- | --- | --- |
| 6.28 | Reversible in its action | O=C(O)c1nn(-c2ccccc2)cc1O [LSN17948] | 42.1% | The spectrum is unchanged and no g intermediate signal is seen |
| 6.17 | Reversible in its action | O=C(O)c1n[nH]c(-c2ccccc2)c1O [LSN87637] | 65.9% |  |
| 6.17 | Reversible in its action | O=C(O)c1nn(-c2cccc3ccccc23)cc1O [LSN2944556] | 67.6% |  |
